Structures can show the parent of a compound that is named as a salt.
Biological target: T1, human NK-2 receptor (Homo sapiens, UniProt P21452)
T1 construct: expressed in transfected cells; host or cells: CHO (Chinese hamster ovary) cells, membranes
T1 sequence (P21452 1-398): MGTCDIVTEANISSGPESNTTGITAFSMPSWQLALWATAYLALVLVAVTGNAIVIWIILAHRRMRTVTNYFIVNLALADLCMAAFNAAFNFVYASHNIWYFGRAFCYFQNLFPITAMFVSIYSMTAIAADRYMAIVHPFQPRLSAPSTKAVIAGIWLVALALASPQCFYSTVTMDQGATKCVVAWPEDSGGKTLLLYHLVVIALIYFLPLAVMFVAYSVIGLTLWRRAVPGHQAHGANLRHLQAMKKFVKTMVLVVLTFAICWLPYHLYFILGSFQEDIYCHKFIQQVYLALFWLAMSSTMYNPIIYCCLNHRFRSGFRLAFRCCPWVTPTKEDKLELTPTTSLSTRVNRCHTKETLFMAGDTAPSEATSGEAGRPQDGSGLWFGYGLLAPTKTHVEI
Assay: binding test, affinity for the human NK-2 receptor, competition with [125I]NKA on transfected CHO cell membranes
Conditions: CHO cell membranes transfected with NK-2 receptor of human ileum; [125I]NKA 100 pM; 30 min, 20° C.
Experimental: The evaluation of the antagonist activity on NK-2 receptors has been assessed by binding and functional tests according to that already described in literature in relation to NK-2 antagonists.
The test substances have been tested within a concentration range from 0.01 nM to 10 nM. At the end of the incubation time (30 min, 20° C.) the samples have been filtered and radioactivity has been determined using a gamma-counter.

Row | Compound | Ki [nM] | pKi
1 | O=C(NC1(C(=O)N[C@H](Cc2ccccc2)C(=O)NC2CCN(CCC3CCOCC3)CC2)CCCC1)c1cc2ccccc2s1 [Example 68, Benzo[b]thiophene-2-carboxylic acid [1-(2-phenyl-1(R)-{1-[2-(tetrahydro-pyran-4-yl)-ethyl]-piperidin-4-ylcarbamoyl}-ethylcarbamoyl)-cyclopentyl]-amide TFA salt] | 1.26 | –
2 | NC1(C(=O)N2CCC(CNC(=O)[C@@H](Cc3ccccc3)NC(=O)C3(NC(=O)c4cc5ccccc5s4)CCCC3)CC2)CCCC1 [Example 63, Benzo[b]thiophene-2-carboxylic acid [1-(1(R)-{[1-(1-amino-cyclopentanecarbonyl)piperidin-4-ylmethyl]-carbamoyl}-2-phenyl-ethylcarbamoyl)-cyclopentyl]-amide] | 0.631 | –
3 | O=C(NC1(C(=O)N[C@H](Cc2ccccc2)C(=O)NCC2CCN(CC3COCOC3)CC2)CCCC1)c1cc2cc(Cl)ccc2o1 [Example 91, 5-Chloro-benzofuran-2-carboxylic acid (1-{1(R)-[(1-[1,3]dioxan-5-ylmethyl-piperidin-4-ylmethyl)-carbamoyl]-2-phenyl-ethylcarbamoyl}-cyclopentyl)-amide] | 1 | –
4 | O=C(NC1(C(=O)N[C@H](Cc2ccccc2)C(=O)NCC2CCN(CC3CCOCC3)CC2)CCCC1)c1cc2ccc(Cl)cc2o1 [Example 120] | 0.316 | –
5 | O=C(NC1(C(=O)NC(Cc2ccccc2)C(=O)NCC2CCN(CC3CCOCC3)CC2)CCCC1)c1ccc2ccccc2c1 (stereo not drawn) [Example 149, Naphthalene-2-carboxylic acid [1-(2-phenyl-1-{[1R-(tetrahydro-pyran-4-ylmethyl)-piperidin-4ylmethyl]-carbamoyl}-ethylcarbamoyl)-cyclopentyl]-amide] | – | 9.9
6 | Cc1ccc(C=CC(=O)NC2(C(=O)NC(Cc3ccc(C)cc3)C(=O)NC3CCC(C(=O)NC4CCCCC4N)C3)CCCC2)cc1 [Example 18, N^γ{N^α[N^α(4-(methyl)cynnamoyl)-1-aminocyclopentan-1-carboxy]-R-3[4-methyl)phenyl]alanyl}-(1R,3S)-3-aminocyclopentane-1-carboxylic-acid-N-((1S,2S)-2-aminocyclohexyl)amide hydrochloride salt] | 0.794 | –
7 | O=C(NC1(C(=O)N[C@H](Cc2ccccc2)C(=O)NCC2CCN(CC3CCOCC3)CC2)CCCC1)c1cc2cccc(Br)c2s1 [Example 131, 7-Bromo-benzo[b]thiophene-2-carboxylic acid [1-(2-phenyl-1R-{[1-(tetrahydro-pyran-4-ylmethyl)-piperidin-4-ylmethyl]-carbamoyl}-ethylcarbamoyl)-cyclopentyl]-amide] | 0.0398 | –
8 | C[C@](Cc1ccccc1)(NC(=O)c1cc2ccccc2s1)C(=O)N[C@H](Cc1ccccc1)C(=O)NCCCN1CCOCC1 [Example 34, N^α[N^α(benzo[b]thiophen-2-ylcarbonyl)-D-α-methylphenylalanil]-D-phenylalanine-N-[3-(morpholin-4-yl)propyl]amide] | 1.26 | –
9 | O=C(NC1(C(=O)N[C@H](Cc2ccccc2)C(=O)NCC2CCN(CC3CCOCC3)CC2)CCCC1)c1cc2cc(F)ccc2o1 [Example 121, 5-Fluoro-benzofuran-2-carboxylic acid [1-(2-phenyl-1R-{[1-(tetrahydro-pyran-4-ylmethyl)-piperidin-4-ylmethyl]-carbamoyl}-ethylcarbamoyl)-cyclopentyl]-amide] | 0.501 | –
10 | CCCCN(CCCC)CCCNC(=O)[C@@H](Cc1ccccc1)NC(=O)C1(NC(=O)c2cc3ccccc3s2)CCCCC1 [Example 19, N^α[N^α(benzo[b]thiophen-2-yl-carbonyl)-1-aminocyclohexan-1-carboxy]-D-phenylalanine-N-{3-[bis(n-butyl)amino]propyl}amide] | – | 8.9
11 | Cn1c(C(=O)NC2(C(=O)N[C@H](Cc3ccccc3)C(=O)NCCCN3CCOCC3)CCCC2)cc2ccc(Cl)cc21 [Example 111, 6-Chloro-1-methyl-1H-indole-2-carboxylic acid {1-[1R-(3-morpholin-4-yl-propylcarbamoyl)-2-phenyl-ethylcarbamoyl]-cyclopentyl}-amide] | 0.2 | –
12 | N#CCN1CCN(C(=O)CCNC(=O)[C@@H](Cc2ccccc2)NC(=O)C2(NC(=O)c3cc4ccccc4s3)CCCC2)CC1 [Example 65, Benzo[b]thiophene-2-carboxylic acid (1-{1(R)-[3-(4-cyanomethyl-piperazin-1-yl)-3-oxo-propylcarbamoyl]-2-phenyl-ethylcarbamoyl}-cyclopentyl)-amide] | 1 | –
13 | Benzo[b]thiophene-2-carboxylic acid [1-(2-phenyl-1(R)-{[1-(tetrahydro-pyran-4-yl)-piperidin-4-ylmethyl]-carbamoyl}-ethylcarbamoyl)-cyclopentyl]-amide [Example 73] | – | 9.3
14 | NC1CCCCC1NC(=O)C1CCC(NC(=O)C(Cc2ccccc2)NC(=O)C2(NC(=O)c3cc4ccccc4s3)CCCC2)C1 (single isomer, unassigned) [Example 37] | 0.0126 | –
15 | O=C(NC1(C(=O)N[C@H](Cc2ccccc2)C(=O)NCC2CCN(CC3COCOC3)CC2)CCCC1)c1cc2ccccc2s1 [Example 88, Benzo[b]thiophene-2-carboxylic acid (1-{1(R)-[(1-[1,3]dioxan-5-ylmethyl-piperidin-4-ylmethyl)carbamoyl]-2-phenyl-ethylcarbamoyl}-cyclopentyl)-amide TFA salt] | 0.794 | –
16 | O=C(NC1(C(=O)N[C@H](Cc2ccccc2)C(=O)NCC2CCN(CCC3CCOCC3)CC2)CCCC1)c1cc2ccccc2s1 [Example 78, Benzo[b]thiophene-2-carboxylic acid {1-[2-phenyl-1(R)-({1-[2-(tetrahydro-pyran-4-yl)-ethyl]-piperidin-4-ylmethyl}-carbamoyl)-ethylcarbamoyl]-cyclopentyl}-amide] | 1 | –
17 | Cc1ccc(C[C@@H](NC(=O)C2(NC(=O)c3ccc(-c4ccccc4)cc3)CCCC2)C(=O)N[C@H]2CC[C@@H](C(=O)N[C@H]3CCCC[C@@H]3N)C2)cc1 [Example 16, N^γ{N^α[N^α(biphenyl-4-carboxy)-1-aminocyclopentan-1-carboxy]-R-3(4(methyl)phenyl)alanyl}-(1R,3S)-3-aminocyclopentane-1-carboxylic-acid-N-((1S,2S)-2-aminocyclohexyl) amide hydrochloride salt] | 0.501 | –
18 | Cc1ccc(C=CC(=O)NC2(C(=O)N[C@H](Cc3ccccc3)C(=O)N[C@H]3CC[C@@H](C(=O)N[C@H]4CCCC[C@@H]4N)C3)CCCC2)cc1.O=C(O)C(F)(F)F [Example 5, N^γ{N^α[N^α[4-(methyl)cynnamoyl]-1-aminocyclopentan-1-carboxy]-D-phenylalanyl}-(1R,3S)-3-aminocyclopentane-1-carboxylic-acid-N-((1S,2S)-2-aminocyclohexyl)amide trifluoroacetate salt] | – | 9.7
19 | NC1CCCCC1NC(=O)C1CCC(NC(=O)C(Cc2ccccc2)NC(=O)C2(NC(=O)c3cc4ccccc4s3)CCCCC2)C1 (single isomer, unassigned) [Example 25] | 0.251 | –
20 | Cc1ccc2sc(C(=O)NC3(C(=O)N[C@H](Cc4ccccc4)C(=O)NCC4CCN(CC5CCOCC5)CC4)CCCC3)cc2c1 [Example 138, 5-Methyl-benzo[b]thiophene-2-carboxylic acid [1-(2-phenyl-1R-{[1-(tetrahydro-pyran-4-ylmethyl)piperidin-ylmethyl]-carbamoyl}-ethylcarbamoyl)-cyclopentyl]-amide] | – | 9.8
21 | CN(C)[C@H]1CCCC[C@@H]1NC(=O)[C@@H]1CC[C@H](NC(=O)[C@@H](Cc2ccccc2)NC(=O)C2(NC(=O)c3ccc(-c4ccccc4)cc3)CCCC2)C1 [Example 12, N^γ{N^α[N^α(biphen-4-ylcarbonyl)-1-aminocyclopentan-1-carboxy]-D-phenylalanyl}-(1R,3S)-3-aminocyclopentane-1-carboxylic-acid-N-((1S,2S)-2-dimethylaminocyclohexyl)amide hydrochloride salt] | 0.316 | –
22 | O=C(NC1(C(=O)N[C@H](Cc2ccccc2)C(=O)NCC2CCN(CC3CCOCC3)CC2)CCCC1)c1cc2ccc(I)cc2s1 [Example 129, 6-Iodo-benzo[b]thiophene-2-carboxylic acid [1-(2-phenyl-1R-{[1-(tetrahydro-pyran-4-ylmethyl)-piperidin-4-ylmethyl]-carbamoyl}-ethylcarbamoyl)-cyclopentyl]-amide] | 0.0501 | –
23 | CC(C)(C)c1ccc2oc(C(=O)NC3(C(=O)N[C@H](Cc4ccccc4)C(=O)NCC4CCN(CC5CCOCC5)CC4)CCCC3)cc2c1 [Example 128, 5-tert-Butyl-benzofuran-2-carboxylic acid [1-(2-phenyl-1R-{[1-(tetrahydro-pyran-4-ylmethyl)-piperidin-4-ylmethyl]-carbamoyl}-ethylcarbamoyl)-cyclopentyl]-amide] | 0.126 | –
24 | O=C(NC1(C(=O)N[C@H](Cc2ccccc2)C(=O)NCC2CCN(CC3CCSCC3)CC2)CCCC1)c1cc2ccccc2s1 [Example 82, Benzo[b]thiophene-2-carboxylic acid [1-(2-phenyl-1(R)-{[1-(tetrahydro-thiopyran-4-ylmethyl)-piperidin-4-ylmethyl]-carbamoyl}-ethylcarbamoyl)cyclopentyl]-amide] | 0.1 | –

Reference: patent US7273856B2, “Linear basic compounds having NK-2 antagonist activity and formulations thereof” (Menarini Ricerche S.P.A., priority 2001, dated 2007)
